Data from patent US6310091A, “Fungicidal saponin, CAY-1, and isolation thereof from Capsium species fruit” (The United States of America as represented by the …, priority 2000, dated 2001).
Several values for one entry are separate records, joined by “and”; a condition that tells them apart may be missing. Equal entries are not always repeated. Where two headings read alike, the source gives them in different places.

What was measured:
Aspergillus flavus = assay: Fungicidal bioassay on nongerminated and germinating conidia of A. flavus; type: cell-based; settings: for activity at 2 µM / activity at 3 µM / activity at 4 µM / activity at 5 µM / activity at 7.5 µM / activity at 10 µM / activity at 1 µM / activity at 2.5 µM: read-out: Percent of Mean Control
Experimental: (§1) 1. Filamentous fungi. Filamentous fungi used in bioassays included Aspergillus flavus, A. fumigatus, A. niger, A. parasiticus and Fusarium oxysporum. The fungicidal properties of CAY-1 for the nongerminated and germinating conidia of these fungi were determined separately as described by De Lucca et al. [Med. Mycol., 36:291-298 (1998)] and De Lucca et al. [Antimicrob. Agents Chemother. 43:371-373 (1999)]. […] Two separate experiments were conducted in each medium (n=8 per medium).
(§2) A suspension of the aforementioned fungi were prepared separately in the appropriate medium. Conidia (10^4 conidia/ml) were used immediately for the nongerminated conidial assays while conidia (10^5 conidia/ml) were incubated for 7.5 hours at 30° C. to obtain germinating conidia. Serial dilutions of CAY-1 were prepared in the appropriate medium (totaling 225 μl) to which was added 25 μl of the conidial suspensions. The control consisted of 225 μl of medium and 25 μl of the conidial suspension. After mixing, the samples were incubated for 30 min (30° C.). Samples were then spread on potato dextrose agar plates which were incubated at 30° C. for 24 hours. Colonies were then enumerated.
(§3) Statistical analyses. ANOVA analyses on ranks for nonparametric data were performed for the bioassays described in this example.

Aspergillus parasiticus = assay: Fungicidal bioassay on nongerminated and germinating conidia of A. parasiticus; type: cell-based; settings: for activity at 5 µM / activity at 10 µM / activity at 15 µM / activity at 20 µM / minimal effective concentration: Aspergillus parasiticus, 0.5 h; for activity at 5 µM / activity at 10 µM / activity at 15 µM / activity at 20 µM: read-out: Percent of Mean Control; for viability reduction: 20.0 μM (24.8 μg/ml)
Experimental: as §1, §2, §3

Fusarium oxysporum = assay: Fungicidal bioassay on nongerminated and germinating conidia of F. oxysporum; type: cell-based
Experimental: as §1, §2, §3

HeLa cells = assay: Mammalian cytotoxicity, HeLa cells (neutral red); type: cell-based, Human; settings: at concentrations effective against the fungi and yeast
Experimental: (§4) 1. HeLa cells. Human epitheloid cervical carcinoma cells (ATCC2.2CCL) were grown in MEM media (Mediatech), supplemented with fetal bovine sera and penicillin (De Lucca et al., Antimicrob. Agents Chemother., 1999, 43:371-373). The cells were rinsed with PBS and harvested using trypsin. Cell count was determined manually using trypan blue and cells were diluted to a final concentration of 2.5×10^5 […]. Aliquots of 100 μl were dispensed per well into a 96-well plate. Cells were incubated overnight (18-24 hours) at 37° C. in a humidified 5% (v/v) CO2 environment. Neutral red dye solution was then added to each well culture and re-incubated for 3 hours. Two-fold serial dilutions of CAY-1 were prepared and aliquoted to final concentrations of 5, 10, 20, 30, and 60 μM (6, 12, 25, 37 and 74 μg/ml, respectively). Negative controls without CAY-1 were included. Cells were exposed to the saponin for 1 hour. Supernatants from each well were transferred into another 96-well plate. The remaining cells were lysed using a 2% Triton solution. Glacial acetic acid was then added to supernatants and lysates, and absorbance was read at A540.

[1] = Mammalian cytotoxicity, HeLa cells (neutral red); type: cell-based, Human; settings: human, hela cells
Experimental: as §4

[2] = nongerminated conidia, either test medium
[3] = nongerminated, RPMI-1640, 5.0 μM
[4] = nongerminated, RPMI-1640, 10.0 μM
[5] = nongerminated, RPMI-1640, 15.0 μM
[6] = nongerminated, RPMI-1640, 20.0 μM

## CC1CCC2(OC1)OC1CC3C4CCC5CC(OC6OC(CO)C(OC7OC(CO)C(O)C(OC8OC(CO)C(O)C(OC9OC(CO)C(O)C(O)C9O)C8O)C7OC7OC(CO)C(O)C(O)C7O)C(O)C6O)C(O)CC5(C)C4CCC3(C)C1C2C (stereo not shown) [CAY-1]
Aspergillus flavus; Aspergillus flavus, 0.5 h, germinating, 1% PDB, 2.0 μM
  activity at 2 µM: 90.1%
Aspergillus flavus; Aspergillus flavus, 0.5 h, germinating, 1% PDB, 3.0 μM
  activity at 3 µM: 74.4%
Aspergillus flavus; Aspergillus flavus, 0.5 h, germinating, 1% PDB, 4.0 μM
  activity at 4 µM: 54.2%
Aspergillus flavus; Aspergillus flavus, 0.5 h, germinating, 1% PDB, 5.0 μM
  activity at 5 µM: 34.9%
Aspergillus flavus; Aspergillus flavus, 0.5 h, germinating, 1% PDB, 7.5 μM
  activity at 7.5 µM: 11%
Aspergillus flavus; Aspergillus flavus, 0.5 h, germinating, 1% PDB, 10.0 μM
  activity at 10 µM: 8.4%
Aspergillus flavus; Aspergillus flavus, 0.5 h, germinating, RPMI-1640, 1.0 μM
  activity at 1 µM: 132%
Aspergillus flavus; Aspergillus flavus, 0.5 h, germinating, RPMI-1640, 2.5 μM
  activity at 2.5 µM: 145%
Aspergillus flavus; Aspergillus flavus, 0.5 h, germinating, RPMI-1640, 5.0 μM
  activity at 5 µM: 62.9%
Aspergillus flavus; Aspergillus flavus, 0.5 h, germinating, RPMI-1640, 7.5 μM
  activity at 7.5 µM: 14%
Aspergillus flavus; Aspergillus flavus, 0.5 h, germinating, RPMI-1640, 10.0 μM
  activity at 10 µM: 9%
Aspergillus flavus; Aspergillus flavus, 0.5 h, nongerminated, 1% PDB, 2.0 μM
  activity at 2 µM: 102%
Aspergillus flavus; Aspergillus flavus, 0.5 h, nongerminated, 1% PDB, 3.0 μM
  activity at 3 µM: 102%
Aspergillus flavus; Aspergillus flavus, 0.5 h, nongerminated, 1% PDB, 4.0 μM
  activity at 4 µM: 103%
Aspergillus flavus; Aspergillus flavus, 0.5 h, nongerminated, 1% PDB, 5.0 μM
  activity at 5 µM: 104%
Aspergillus flavus; Aspergillus flavus, 0.5 h, nongerminated, 1% PDB, 7.5 μM
  activity at 7.5 µM: 106%
Aspergillus flavus; Aspergillus flavus, 0.5 h, nongerminated, 1% PDB, 10.0 μM
  activity at 10 µM: 108%
Aspergillus flavus; Aspergillus flavus, 0.5 h, nongerminated, RPMI-1640, 1.0 μM
  activity at 1 µM: 88.6%
Aspergillus flavus; Aspergillus flavus, 0.5 h, nongerminated, RPMI-1640, 2.5 μM
  activity at 2.5 µM: 92.2%
Aspergillus flavus; Aspergillus flavus, 0.5 h, nongerminated, RPMI-1640, 5.0 μM
  activity at 5 µM: 91.7%
Aspergillus flavus; Aspergillus flavus, 0.5 h, nongerminated, RPMI-1640, 7.5 μM
  activity at 7.5 µM: 90.7%
Aspergillus flavus; Aspergillus flavus, 0.5 h, nongerminated, RPMI-1640, 10.0 μM
  activity at 10 µM: 99.2%
Aspergillus flavus; Aspergillus flavus, 0.5 h, read-out: LD95
  LD95 (concentration lethal to 95% of conidia): 12.5 µM and 15.5 µg/mL
Aspergillus flavus; Aspergillus flavus, 0.5 h, read-out: concentration lethal to germinating conidia
  minimal effective concentration: 7.5 µM and 9.3 µg/mL
Aspergillus flavus; germinating conidia, RPMI-1640, p=0.0187
  concentration lethal to germinating conidia: 7.5 μM and 9.3 μg/ml
Aspergillus flavus; germinating, 1% PDB, 2.0 μM
  Mean No. of Colonies: 139.8
Aspergillus flavus; germinating, 1% PDB, 3.0 μM
  Mean No. of Colonies: 115.4
Aspergillus flavus; germinating, 1% PDB, 4.0 μM
  Mean No. of Colonies: 84.1
Aspergillus flavus; germinating, 1% PDB, 5.0 μM
  Mean No. of Colonies: 54.2
Aspergillus flavus; germinating, 1% PDB, 7.5 μM
  Mean No. of Colonies: 17.1
Aspergillus flavus; germinating, 1% PDB, 10.0 μM
  Mean No. of Colonies: 13.1
Aspergillus flavus; germinating, RPMI-1640, 1.0 μM
  Mean No. of Colonies: 52.6
Aspergillus flavus; germinating, RPMI-1640, 2.5 μM
  Mean No. of Colonies: 57.8
Aspergillus flavus; germinating, RPMI-1640, 5.0 μM
  Mean No. of Colonies: 25.1
Aspergillus flavus; germinating, RPMI-1640, 7.5 μM
  Mean No. of Colonies: 5.6
Aspergillus flavus; germinating, RPMI-1640, 10.0 μM
  Mean No. of Colonies: 3.6
Aspergillus flavus; [2]
  viability of nongerminated conidia: not affected
Aspergillus flavus; nongerminated, 1% PDB, 2.0 μM
  Mean No. of Colonies: 54.4
Aspergillus flavus; nongerminated, 1% PDB, 3.0 μM
  Mean No. of Colonies: 54.8
Aspergillus flavus; nongerminated, 1% PDB, 4.0 μM
  Mean No. of Colonies: 55.2
Aspergillus flavus; nongerminated, 1% PDB, 5.0 μM
  Mean No. of Colonies: 55.7
Aspergillus flavus; nongerminated, 1% PDB, 7.5 μM
  Mean No. of Colonies: 56.9
Aspergillus flavus; nongerminated, 1% PDB, 10.0 μM
  Mean No. of Colonies: 58.0
Aspergillus flavus; nongerminated, RPMI-1640, 1.0 μM
  Mean No. of Colonies: 53.6
Aspergillus flavus; nongerminated, RPMI-1640, 2.5 μM
  Mean No. of Colonies: 55.8
Aspergillus flavus; [3]
  Mean No. of Colonies: 55.5
Aspergillus flavus; nongerminated, RPMI-1640, 7.5 μM
  Mean No. of Colonies: 54.9
Aspergillus flavus; [4]
  Mean No. of Colonies: 60.0
Aspergillus parasiticus; germinated, RPMI-1640, 5.0 μM
  activity at 5 µM: 56.6%
  Mean No. of Colonies: 40.1
Aspergillus parasiticus; germinated, RPMI-1640, 10.0 μM
  activity at 10 µM: 17.5%
  Mean No. of Colonies: 12.4
Aspergillus parasiticus; germinated, RPMI-1640, 15.0 μM
  activity at 15 µM: 12.7%
  Mean No. of Colonies: 9.0
Aspergillus parasiticus; germinated, RPMI-1640, 20.0 μM
  activity at 20 µM: 8.1%
  Mean No. of Colonies: 5.7
Aspergillus parasiticus; germinating, 1% PDB, 5.0 μM
  activity at 5 µM: 61.9%
  Mean No. of Colonies: 95.5
Aspergillus parasiticus; germinating, 1% PDB, 10.0 μM
  activity at 10 µM: 28%
  Mean No. of Colonies: 43.3
Aspergillus parasiticus; germinating, 1% PDB, 15.0 μM
  activity at 15 µM: 21%
  Mean No. of Colonies: 32.5
Aspergillus parasiticus; germinating, 1% PDB, 20.0 μM
  activity at 20 µM: 16.5%
  Mean No. of Colonies: 25.5
Aspergillus parasiticus; nongerminated, 1% PDB, 5.0 μM
  activity at 5 µM: 97.3%
  Mean No. of Colonies: 53.1
Aspergillus parasiticus; nongerminated, 1% PDB, 10.0 μM
  activity at 10 µM: 100%
  Mean No. of Colonies: 54.6
Aspergillus parasiticus; nongerminated, 1% PDB, 15.0 μM
  activity at 15 µM: 93.9%
  Mean No. of Colonies: 51.3
Aspergillus parasiticus; nongerminated, 1% PDB, 20.0 μM
  activity at 20 µM: 94.5%
  Mean No. of Colonies: 51.9
Aspergillus parasiticus; [3]
  activity at 5 µM: 103%
  Mean No. of Colonies: 42.5
Aspergillus parasiticus; [4]
  activity at 10 µM: 103%
  Mean No. of Colonies: 42.5
Aspergillus parasiticus; [5]
  activity at 15 µM: 87.9%
  Mean No. of Colonies: 36.4
Aspergillus parasiticus; [6]
  activity at 20 µM: 97.6%
  Mean No. of Colonies: 40.4
Aspergillus parasiticus; read-out: concentration required for significant viability reduction
  minimal effective concentration: 12.4 µg/mL
Aspergillus parasiticus; germinating conidia, 1% PDB, p=0.001, read-out: concentration significantly reducing viability
  minimal effective concentration: 5 µM and 6.2 µg/mL
Aspergillus parasiticus; germinating conidia, RPMI-1640, p=0.0002, read-out: concentration required for significant viability reduction
  minimal effective concentration: 10 µM
Aspergillus parasiticus; germinating conidia, 1% PDB
  viability reduction: 85%
Aspergillus parasiticus; germinating conidia, RPMI-1640
  viability reduction: 92%
Aspergillus parasiticus; [2]
  viability of nongerminated conidia: not affected
Fusarium oxysporum
  activity against conidia: not active
HeLa cells
  lethality to mammalian cells: not lethal
[1]
  MCC at 1 h: 30 µM and 37 µg/mL
  cytotoxicity at 1 h, 30 µM: ~13%
  cytotoxicity at 1 h, 60 µM: ~32%
